Data reported in PubChem BioAssay (NCI).
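96-well plates; 48 h exposure; 5 concentrations. Endpoints by linear interpolation between flanking doses. Not reached: highest tested concentration assigned. TGI: concentration producing complete growth inhibition.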 Where a SMILES comes first, the peptide text is derived from it. The star is where a group is joined. Boc = CC(C)(C)OC(=O)*

Legend:
Experiment in all cases: inhibition of tumour cell growth, NCI panel, 48 h
[1] = test system: SK-MEL-28 melanoma
[2] = test system: RPMI-8226 leukemia
[3] = test system: U251 CNS
[4] = test system: CCRF-CEM leukemia
[5] = test system: MDA-MB-231 breast
[6] = test system: 786-0 renal
[7] = test system: CAKI-1 renal
[8] = test system: SNB-75 CNS
[9] = test system: HOP-92 NSCLC
[10] = test system: HS 578T breast

| SMILES | TGI [1] [µM] | TGI [2] [µM] | TGI [3] [µM] | TGI [4] [µM] | TGI [5] [µM] | TGI [6] [µM] | TGI [7] [µM] | TGI [8] [µM] | TGI [9] [µM] | TGI [10] [µM] |
| --- | --- | --- | --- | --- | --- | --- | --- | --- | --- | --- |
| COc1ccc(-c2cc(-c3ccc(Nc4ccnc5cc(Cl)ccc45)cc3)nc(N)c2C#N)c2ccccc12 | > 100 | > 100 | > 100 | > 100 | > 100 | > 100 | > 100 | > 100 |  |  |
| CCCN(CCC)c1c([N+](=O)[O-])cc(S(N)(=O)=O)cc1[N+](=O)[O-] | 36.3 | 76.4 | 26.9 | 46.5 |  | 30.4 | 26.4 | 32.4 |  |  |
| Brc1ccc2c(c1)C1=C(CO2)Cc2ccccc2O1 |  | 61.8 | 36.3 | > 100 | 30.3 | 43.7 | 32.3 | 43 | 31.5 |  |
| O=C(c1ccco1)N(C(=S)N1CCN(c2ccccc2)CC1)c1ccccc1 | > 100 | > 100 | > 100 | > 100 |  | > 100 | > 100 | > 100 | > 100 |  |
| CC1=C(N2CC2)C(=O)c2nc3n(c2C1=O)CCC3O (configuration not stated) | 0.872 | 10.2 | 0.962 | 13.4 |  | 0.967 | 0.777 | 1.23 | 5.72 | 0.0585 |
| Nc1nc(N)c2ncn(CC(CO)CC(c3ccccc3)P(=O)(O)O)c2n1 (configuration not stated) | > 100 | > 100 | > 100 | > 100 |  |  | > 100 | > 100 | > 100 |  |
| CC(NCCS(=O)(=O)O)C(=O)O (configuration not stated) | > 100 | > 100 | > 100 | > 100 |  |  | > 100 | > 100 | > 100 |  |
| O=C1CC(O)c2c(Cl)sc(Cl)c21 (configuration not stated) | 13.5 | 59.7 | 20.2 | 4.68 | > 61.3 | 11.2 | 9.68 | 29.5 | 7.89 |  |
| CCCc1ccc(N=Cc2cc(OC)c(OC)c(OC)c2)cc1 | > 100 | > 65.8 | > 100 | > 100 |  | > 100 | > 100 | > 100 | > 100 |  |
| CC(=O)C(=C(I)I)c1ccccc1 | 38.7 |  | 35.7 | 31.7 | 51.4 | 40.3 | 3.66 |  | 64.5 |  |
| COc1cc2c(cc1OCCCC(=O)Nc1cc(C(=O)Nc3cc(C(=O)NCCCN(C)C)n(C)n3)n(C)n1)N=CC1CCCN1C2=O (configuration not stated) | 30.4 | 40.3 | 39.5 | 29.7 | 39.5 | 35.5 | 31.2 |  | 33.2 |  |
| COc1nc2c(c(=O)n1C)N[C@@H]1[C@@H](O)[C@H](O)CO[C@@H]1N2 | > 100 | > 100 | > 100 | > 100 |  | > 100 | > 100 | > 100 |  | > 100 |
| CC(NC(=O)C(NC(=O)OC(C)(C)C)C(C)C)C(=O)NCC(=O)O (stereo not drawn) (Boc-Val-Ala-Gly-OH; configuration not given here) | > 100 | > 100 | > 100 |  |  | > 100 | > 100 |  | > 100 | > 100 |
| COc1cc(C(C#N)NNC(=O)c2ccccc2O)ccc1O (configuration not stated) | > 100 | > 100 | > 100 | > 100 |  | > 100 | > 100 | 8.46 | 97.3 |  |
| CCCCNC(=S)Nc1nc(C(=O)NNS(=O)(=O)c2ccccc2)cs1 |  | > 100 | > 100 | > 100 | 68.8 | > 100 | 69.5 | 76.6 | > 100 |  |
| CC1=C2N3C[C@@H](n4c(=O)n(C)c(=O)n43)C23CCC1n1c(=O)n(C)c(=O)n13 | > 100 | > 100 |  | > 100 |  | > 100 | > 100 | > 100 |  |  |
| COc1cccc2c1C1=CC(=O)CCC1C(C)(C)O2 (configuration not stated) | > 100 | 50.4 | > 100 | > 100 |  | > 100 | > 100 | > 100 | > 100 |  |
| CSc1n[n+](C)cc(N)c1N | > 100 | > 100 | > 100 | > 100 | > 100 | > 100 | > 100 | > 100 | 98 |  |
| O=C(CCCC(=O)N1CC(CCl)c2ccc([N+](=O)[O-])cc21)N1CC(CCl)c2ccc([N+](=O)[O-])cc21 (configuration not stated) | > 100 | > 100 | > 100 | > 100 | > 100 | > 100 | > 100 |  | > 100 |  |
| CC(Nc1cc(Cl)cc(Cl)c1)c1ccncc1 (configuration not stated) | 97.8 | 42.5 | 35.2 | 58 |  | 51.3 | 52.4 | 63.1 |  | > 100 |
| Cc1ccc(-n2c(C)nc3c2C(=O)c2ccccc2C3=O)cc1 | > 100 |  | > 100 | > 100 |  | > 100 |  | > 100 | > 100 |  |
